Blank lines part the entries; values can stand above or below the compound they belong to.
Tests used:
[1] = target: Mitogen-activated protein kinase 10 (Homo sapiens) (UniProt P53779); experiment: Inhibition of human recombinant JNK3 at 500 nM in presence of ATP by radiometric assay relative to control
[2] = target: Protein kinase C theta type (Homo sapiens) (UniProt Q04759); experiment: Inhibition of human recombinant PKCt at 500 nM related to control ULK1
[3] = target: T1, Ephrin type-A receptor 1 (Homo sapiens) (UniProt P21709); experiment: Inhibition of human recombinant EphA1 at 15 nM in presence of ATP by radiometric assay relative to control
T1 sequence (whole entry): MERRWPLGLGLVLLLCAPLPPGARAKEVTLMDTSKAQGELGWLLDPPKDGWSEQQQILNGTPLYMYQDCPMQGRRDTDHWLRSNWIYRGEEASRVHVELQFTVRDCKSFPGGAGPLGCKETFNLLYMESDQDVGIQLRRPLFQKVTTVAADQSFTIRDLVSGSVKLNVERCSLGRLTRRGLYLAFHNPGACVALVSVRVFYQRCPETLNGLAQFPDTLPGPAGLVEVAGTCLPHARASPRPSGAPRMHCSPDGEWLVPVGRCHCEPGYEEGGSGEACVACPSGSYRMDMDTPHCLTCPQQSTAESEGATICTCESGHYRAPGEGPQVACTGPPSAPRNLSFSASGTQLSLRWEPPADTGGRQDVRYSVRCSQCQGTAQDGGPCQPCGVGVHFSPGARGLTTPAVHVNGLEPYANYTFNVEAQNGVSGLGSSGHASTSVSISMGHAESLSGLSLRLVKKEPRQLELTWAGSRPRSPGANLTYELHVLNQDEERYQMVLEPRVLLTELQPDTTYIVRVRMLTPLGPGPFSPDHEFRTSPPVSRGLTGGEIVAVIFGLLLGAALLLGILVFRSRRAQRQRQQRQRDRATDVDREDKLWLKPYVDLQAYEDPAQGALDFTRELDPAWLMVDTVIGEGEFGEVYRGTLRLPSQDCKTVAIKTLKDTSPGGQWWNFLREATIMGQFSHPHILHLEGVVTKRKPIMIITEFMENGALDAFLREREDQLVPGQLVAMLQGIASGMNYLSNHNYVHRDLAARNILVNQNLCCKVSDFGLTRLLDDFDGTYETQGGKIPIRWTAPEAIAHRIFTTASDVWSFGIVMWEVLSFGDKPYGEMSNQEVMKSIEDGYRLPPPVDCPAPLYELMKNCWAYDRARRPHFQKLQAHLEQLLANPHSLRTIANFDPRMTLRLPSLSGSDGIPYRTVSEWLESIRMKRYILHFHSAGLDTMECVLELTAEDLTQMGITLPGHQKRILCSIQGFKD

[4] = target: T2, Beta-adrenergic receptor kinase 1 (Homo sapiens) (UniProt P25098); experiment: Inhibition of human recombinant BARK1 at 15 nM related to control ULK1
T2 sequence (whole entry): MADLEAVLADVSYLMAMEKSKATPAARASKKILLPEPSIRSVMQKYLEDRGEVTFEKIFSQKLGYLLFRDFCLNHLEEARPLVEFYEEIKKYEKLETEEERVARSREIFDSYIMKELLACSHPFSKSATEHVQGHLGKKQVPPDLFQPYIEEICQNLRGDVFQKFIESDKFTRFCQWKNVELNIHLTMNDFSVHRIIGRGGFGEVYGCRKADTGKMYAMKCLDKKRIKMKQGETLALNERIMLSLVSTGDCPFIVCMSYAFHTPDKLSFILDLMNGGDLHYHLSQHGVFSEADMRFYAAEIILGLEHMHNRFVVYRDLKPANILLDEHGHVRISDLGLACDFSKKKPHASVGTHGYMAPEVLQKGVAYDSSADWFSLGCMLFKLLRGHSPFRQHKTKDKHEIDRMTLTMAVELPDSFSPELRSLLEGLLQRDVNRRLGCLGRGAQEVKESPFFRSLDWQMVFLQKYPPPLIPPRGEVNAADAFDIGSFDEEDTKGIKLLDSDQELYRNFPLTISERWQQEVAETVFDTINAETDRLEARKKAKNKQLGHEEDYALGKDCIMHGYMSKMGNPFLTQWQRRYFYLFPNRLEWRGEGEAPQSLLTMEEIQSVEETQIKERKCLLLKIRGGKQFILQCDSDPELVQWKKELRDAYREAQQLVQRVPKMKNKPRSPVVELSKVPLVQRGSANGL

[5] = target: T3, Serine/threonine-protein kinase TBK1 (Homo sapiens) (UniProt Q9UHD2); experiment: Inhibition of human recombinant TBK1 at 40 nM in presence of ATP by radiometric assay relative to control
T3 sequence (whole entry): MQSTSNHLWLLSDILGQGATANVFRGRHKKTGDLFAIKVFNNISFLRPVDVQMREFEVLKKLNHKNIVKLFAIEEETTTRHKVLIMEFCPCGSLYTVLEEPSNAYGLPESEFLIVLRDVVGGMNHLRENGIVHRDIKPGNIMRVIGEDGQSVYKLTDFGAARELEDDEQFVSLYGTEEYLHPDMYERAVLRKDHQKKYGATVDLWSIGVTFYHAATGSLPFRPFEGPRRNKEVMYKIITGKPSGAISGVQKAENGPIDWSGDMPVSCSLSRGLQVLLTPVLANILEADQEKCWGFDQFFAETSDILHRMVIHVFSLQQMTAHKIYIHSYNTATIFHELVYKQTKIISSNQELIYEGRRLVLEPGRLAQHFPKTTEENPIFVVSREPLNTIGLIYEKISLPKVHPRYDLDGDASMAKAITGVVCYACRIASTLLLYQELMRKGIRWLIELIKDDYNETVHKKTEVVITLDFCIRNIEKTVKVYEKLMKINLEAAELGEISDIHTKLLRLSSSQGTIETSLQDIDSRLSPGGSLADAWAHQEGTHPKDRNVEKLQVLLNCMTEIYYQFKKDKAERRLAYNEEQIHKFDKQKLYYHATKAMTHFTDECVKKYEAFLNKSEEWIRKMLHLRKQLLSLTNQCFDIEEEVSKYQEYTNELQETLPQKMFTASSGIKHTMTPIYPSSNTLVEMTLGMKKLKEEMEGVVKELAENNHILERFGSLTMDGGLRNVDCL

Mitogen-activated protein kinase 10 (Homo sapiens), sequence (P53779 whole entry): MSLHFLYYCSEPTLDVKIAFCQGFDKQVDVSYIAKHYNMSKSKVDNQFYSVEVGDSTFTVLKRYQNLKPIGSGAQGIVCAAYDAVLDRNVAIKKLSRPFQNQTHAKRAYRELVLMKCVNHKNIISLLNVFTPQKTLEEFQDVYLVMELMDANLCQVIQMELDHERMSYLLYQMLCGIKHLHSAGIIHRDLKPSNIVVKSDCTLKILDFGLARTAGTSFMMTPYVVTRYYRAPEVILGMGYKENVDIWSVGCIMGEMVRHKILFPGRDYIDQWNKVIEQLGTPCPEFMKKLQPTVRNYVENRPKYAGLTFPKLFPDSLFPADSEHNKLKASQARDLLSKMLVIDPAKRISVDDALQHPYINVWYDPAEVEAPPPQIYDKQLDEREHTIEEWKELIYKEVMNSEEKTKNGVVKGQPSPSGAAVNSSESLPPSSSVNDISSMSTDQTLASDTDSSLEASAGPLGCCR
Protein kinase C theta type (Homo sapiens), sequence (Q04759 whole entry, looked up): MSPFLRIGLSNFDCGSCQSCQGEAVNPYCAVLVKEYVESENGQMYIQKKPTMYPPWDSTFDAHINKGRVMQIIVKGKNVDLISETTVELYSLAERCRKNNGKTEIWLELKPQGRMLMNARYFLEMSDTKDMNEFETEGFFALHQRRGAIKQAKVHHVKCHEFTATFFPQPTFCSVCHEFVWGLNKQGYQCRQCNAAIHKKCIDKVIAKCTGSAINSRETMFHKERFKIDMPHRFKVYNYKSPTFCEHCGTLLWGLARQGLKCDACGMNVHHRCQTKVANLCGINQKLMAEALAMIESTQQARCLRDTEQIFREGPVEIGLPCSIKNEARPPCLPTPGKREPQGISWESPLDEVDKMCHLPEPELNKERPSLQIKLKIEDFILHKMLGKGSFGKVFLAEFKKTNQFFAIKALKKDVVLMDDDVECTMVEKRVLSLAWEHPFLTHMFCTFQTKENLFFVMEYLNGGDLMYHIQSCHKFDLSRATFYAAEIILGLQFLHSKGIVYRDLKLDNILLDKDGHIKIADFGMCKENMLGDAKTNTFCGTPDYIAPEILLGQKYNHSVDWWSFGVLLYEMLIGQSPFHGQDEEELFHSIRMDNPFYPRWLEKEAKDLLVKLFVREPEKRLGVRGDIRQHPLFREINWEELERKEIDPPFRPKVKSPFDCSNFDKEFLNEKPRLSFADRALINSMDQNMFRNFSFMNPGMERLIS

inhibition [1]: 3%
fold change (FC) [2]: 0
SMILES: CNC(=O)c1ccccc1Oc1nc(Nc2cc(OC)c(OC)c(OC)c2)ncc1Br

inhibition [3]: 0%
fold change (FC) [4]: 0
SMILES: CC(C)[C@H](NC(=O)c1cc(-c2cnn3cc(-c4ccc(OCCN5CCCCC5)cc4)cnc23)cs1)C(F)(F)F

inhibition [5]: 26%
SMILES: O=C(N[C@@H](C1CC1)C(F)(F)F)c1cc(-c2cnn3cc(-c4ccc(F)cc4)cnc23)cs1

From ChEMBL document CHEMBL5653631, “A Potent and Selective ULK1 Inhibitor Suppresses Autophagy and Sensitizes Cancer Cells to Nutrient Stress” (iScience, 2018)
